Key:
Conditions in all cases: incubation time: 72 h
CAL-51 [1] = test: normalised response (% of control), CellTox Green; higher = less cell death (100 = DMSO, 0 = benzethonium chloride kill control)
Outline: (§1)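 A 20 µl suspension of breast cancer cells was seeded into each well of 384-well plates containing compound at 5 concentrations in 10-fold steps over a compound-specific 10,000-fold range. After 72 h incubation, CellTox Green fluorescence (485/520 nm) was read first, and CellTiter-Glo luminescence was read after 10 min at room temperature. Each plate was normalised against 0.1 % DMSO (100) and a positive kill control (0), and each value is the normalised signal at one concentration.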

CAL-148 [2] = test: as above
Outline: as §1

HCC1599 [3] = test: as above
Outline: as §1

CAL-120 [4] = test: as above
Outline: as §1

MDA-MB-468 [5] = test: as above
Outline: as §1

MFM-223 [6] = test: as above
Outline: as §1

Hs578T [7] = test: as above
Outline: as §1

MDA-MB-436 [8] = test: as above
Outline: as §1

BT-549 [9] = test: as above
Outline: as §1

CAL-85-1 [10] = test: as above
Outline: as §1

MDA-MB-231 [11] = test: as above
Outline: as §1

HDQ-P1 [12] = test: as above
Outline: as §1

DU-4475 [13] = test: as above
Outline: as §1

HCC1143 [14] = test: as above
Outline: as §1

MCF-10A [15] = test: as above
Outline: as §1

BT-474 [16] = test: as above
Outline: as §1

HCC1937 [17] = test: as above
Outline: as §1

MDA-MB-453 [18] = test: as above
Outline: as §1

CAL-51 [19] = test: normalised response (% of control), CellTiter-Glo; higher = more viable cells (100 = DMSO, 0 = benzethonium chloride kill control)
Experimental: (§2)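 DSRT, 72 h incubation, CellTox Green / CellTiter-Glo readout. Signal is normalised to DMSO and benzethonium chloride controls. Value is the normalised response at the highest dose.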

CAL-148 [20] = test: as above
Experimental: as §2

SK-BR-3 = test: as above
Experimental: as §2

HCC1599 [21] = test: as above
Experimental: as §2

CAL-120 [22] = test: as above
Experimental: as §2

MDA-MB-468 [23] = test: as above
Experimental: as §2

MFM-223 [24] = test: as above
Experimental: as §2

Hs578T [25] = test: as above
Experimental: as §2

MDA-MB-436 [26] = test: as above
Experimental: as §2

BT-549 [27] = test: as above
Experimental: as §2

CAL-85-1 [28] = test: as above
Experimental: as §2

MDA-MB-231 [29] = test: as above
Experimental: as §2

HDQ-P1 [30] = test: as above
Experimental: as §2

DU-4475 [31] = test: as above
Experimental: as §2

HCC1143 [32] = test: as above
Experimental: as §2

MCF-10A [33] = test: as above
Experimental: as §2

BT-474 [34] = test: as above
Experimental: as §2

HCC1937 [35] = test: as above
Experimental: as §2

MDA-MB-453 [36] = test: as above
Experimental: as §2

Compound | normalised response (CAL-51 [1]) | normalised response (CAL-148 [2]) | normalised response (HCC1599 [3]) | normalised response (CAL-120 [4]) | normalised response (MDA-MB-468 [5]) | normalised response (MFM-223 [6]) | normalised response (Hs578T [7]) | normalised response (MDA-MB-436 [8]) | normalised response (BT-549 [9]) | normalised response (CAL-85-1 [10]) | normalised response (MDA-MB-231 [11]) | normalised response (HDQ-P1 [12]) | normalised response (DU-4475 [13]) | normalised response (HCC1143 [14]) | normalised response (MCF-10A [15]) | normalised response (BT-474 [16]) | normalised response (HCC1937 [17]) | normalised response (MDA-MB-453 [18]) | normalised response (CAL-51 [19]) | normalised response (CAL-148 [20]) | normalised response (SK-BR-3) | normalised response (HCC1599 [21]) | normalised response (CAL-120 [22]) | normalised response (MDA-MB-468 [23]) | normalised response (MFM-223 [24]) | normalised response (Hs578T [25]) | normalised response (MDA-MB-436 [26]) | normalised response (BT-549 [27]) | normalised response (CAL-85-1 [28]) | normalised response (MDA-MB-231 [29]) | normalised response (HDQ-P1 [30]) | normalised response (DU-4475 [31]) | normalised response (HCC1143 [32]) | normalised response (MCF-10A [33]) | normalised response (BT-474 [34]) | normalised response (HCC1937 [35]) | normalised response (MDA-MB-453 [36])
CC1(COc2ccc3c(c2)ncn3-c2ccc3cccc(N4CCC(N)CC4)c3n2)COC1 [Crenolanib] (10000 nM) | 30.6% | -15.7% | 81.5% | 74.8% | 131% | 93.4% | 103% | 36.1% | 28.9% | -25.9% | -59% | 39.2% | 63.6% | 55.7% | -4.14% | 17.5% | 87.1% | 78.5% | 7.22% | 8.15% | 2.13% | 60.6% | 52.4% | 12.9% | 61.4% | 27.5% | 7.1% | 20.6% | 1.52% | 0.75% | 13.9% | 25% | 75.8% | 10.4% | 3.8% | 52.4% | 15.6%
CN[C@@H](C)C(=O)N[C@H]1CN(C(=O)CC(C)C)CC[C@H]2CC[C@@H](C(=O)NC(c3ccccc3)c3ccccc3)N2C1=O [AT-406] (10000 nM) | 83% | 66.9% | 97.5% | 41.2% | 57.3% | 103% | 92.7% | 85.5% | 83.8% | 0.8% | -35.9% | – | 95.4% | 108% | 112% | 89.4% | 84.8% | 93.2% | 90.8% | 91.2% | 89.6% | 97.5% | 61.1% | 65.1% | 102% | 94.1% | 93.2% | 64.9% | 41.9% | 14.2% | 84.5% | 97.9% | 85.5% | 106% | 16.4% | 88% | 58.1%
C=CCN(/C=C1/C(=O)O[C@H](COC)[C@@]2(C)C1=C(O)C(=O)C1=C2[C@H](OC(C)=O)C[C@]2(C)C(=O)CC[C@@H]12)CC=C [Sonolisib] (10000 nM) | 90.6% | – | 113% | 97.4% | – | 103% | 111% | 98.2% | 104% | 61.7% | 106% | 108% | 107% | 117% | 108% | 99.8% | 81.7% | 101% | 82.1% | 124% | 93.9% | 102% | 102% | 86% | 106% | 95.7% | 101% | 82.2% | 103% | 87.3% | 72.1% | 96.5% | 91.8% | 88.4% | 87.1% | 90.4% | 84.8%
CN(C)C(=N)NC(=N)N [Metformin] (100000 nM) | 86.8% | 98.1% | 76% | 94.6% | – | 96.3% | 52.6% | 93.3% | 76.3% | 125% | 69.3% | 99.2% | 90.3% | – | 89.2% | 91.1% | 95.3% | 90.5% | 82.5% | 104% | 80% | 108% | 108% | 86.1% | 90.3% | 92.6% | 102% | 99.3% | 104% | 91.2% | 95.4% | 79.1% | 93% | 75.6% | 95.5% | 86.8% | 89.9%
O=C(O)CNC(=O)c1c(O)c2ccccc2n(Cc2ccccc2)c1=O [IOX-2] (50000 nM) | 84.3% | 101% | 102% | 101% | 133% | 103% | 113% | 67% | 73.6% | 105% | 100% | – | 97.8% | 104% | 107% | 102% | 91.5% | – | 71.1% | 97.8% | 94% | 97.3% | 95.3% | 92.2% | 98.2% | 103% | 62.9% | 86.4% | 93.9% | 85.1% | 91.1% | 98.3% | 92.6% | 102% | 85.9% | 98.2% | 103%
CN(Cc1cnc2nc(N)nc(N)c2n1)c1ccc(C(=O)N[C@@H](CCC(=O)O)C(=O)O)cc1 [Methotrexate] (50000 nM) | 114% | 105% | 101% | 102% | 77.6% | 103% | -70.6% | 42.9% | 103% | 64.1% | 92.3% | 112% | 99% | – | 103% | 93.8% | 106% | 65% | 68.2% | 107% | 72.5% | 52.4% | 21.7% | 100% | 101% | 19.5% | 77.1% | 92.2% | 49.6% | 29.1% | 53.7% | 92.3% | 84.4% | 105% | 23.6% | 31.5% | 96%
CC(C)(C)c1nc(-c2cccc(NS(=O)(=O)c3c(F)cccc3F)c2F)c(-c2ccnc(N)n2)s1 [Dabrafenib] (2500 nM) | 106% | – | 103% | 78.8% | 87% | 104% | – | 107% | 94.2% | 83.9% | 97.8% | – | 70.1% | 120% | 102% | 103% | – | 96.6% | 72.6% | 108% | 80.8% | 89.4% | 75.8% | 89.2% | 93.1% | 88% | 92.3% | 92.7% | 108% | 101% | 94% | 0.71% | 95% | 96% | 100% | 96.8% | 95.4%
Cc1nc(C(=O)NCC(=O)O)c(O)c2ccc(Oc3ccccc3)cc12 [FG-4592] (10000 nM) | 105% | 89.3% | 99.9% | 107% | 125% | 104% | – | 93.9% | 94.7% | 78.6% | 95.7% | 114% | 97.7% | 118% | 111% | 98% | 72.6% | 95.2% | 97.7% | 113% | 101% | 92% | 102% | 110% | 103% | 109% | 98.8% | 92% | 101% | 96.1% | 92% | 97% | 98.5% | 107% | 94.5% | 100% | 97.4%
CCn1c(C(=O)N(C2CC2)C2CC2)cc2c3c(ncn3C)c(Nc3cc(C)n(C)n3)nc21 (10000 nM) | 99.5% | 93% | 94% | 103% | 80.7% | 94.3% | 89.6% | 88.1% | – | 102% | 113% | 105% | 98.5% | – | 109% | 103% | – | 97.7% | 106% | 103% | 93.2% | 123% | 102% | 94.4% | 83.1% | 96% | 93.6% | 102% | 99.5% | 82.2% | 101% | 97.9% | 93.2% | 86.6% | 83.3% | 92.8% | 97%

— the supplement of paper PMC4862054
